Reference: patent publication US11168073B2, “3,3-difluoroallylamines or salts thereof and pharmaceutical compositions comprising the same” (YUHAN CORPORATION, priority 2018, dated 2021)
Structures can show the parent of a compound that is named as a salt. Where two headings read alike, the source gives them in different places.

Key:
Type in all cases: biochemical
[1] = biological target: T1, recombinant human VAP-1 (Homo sapiens, UniProt Q16853); assay: Activity evaluation on recombinant human VAP-1 (Amplex Red/HRP-coupled hydrogen peroxide assay, benzylamine substrate); settings: read-out: Inhibitory Activity (IC50, nM) human VAP-1
T1 construct: purchased R&D systems
T1 sequence (Q16853 1-763): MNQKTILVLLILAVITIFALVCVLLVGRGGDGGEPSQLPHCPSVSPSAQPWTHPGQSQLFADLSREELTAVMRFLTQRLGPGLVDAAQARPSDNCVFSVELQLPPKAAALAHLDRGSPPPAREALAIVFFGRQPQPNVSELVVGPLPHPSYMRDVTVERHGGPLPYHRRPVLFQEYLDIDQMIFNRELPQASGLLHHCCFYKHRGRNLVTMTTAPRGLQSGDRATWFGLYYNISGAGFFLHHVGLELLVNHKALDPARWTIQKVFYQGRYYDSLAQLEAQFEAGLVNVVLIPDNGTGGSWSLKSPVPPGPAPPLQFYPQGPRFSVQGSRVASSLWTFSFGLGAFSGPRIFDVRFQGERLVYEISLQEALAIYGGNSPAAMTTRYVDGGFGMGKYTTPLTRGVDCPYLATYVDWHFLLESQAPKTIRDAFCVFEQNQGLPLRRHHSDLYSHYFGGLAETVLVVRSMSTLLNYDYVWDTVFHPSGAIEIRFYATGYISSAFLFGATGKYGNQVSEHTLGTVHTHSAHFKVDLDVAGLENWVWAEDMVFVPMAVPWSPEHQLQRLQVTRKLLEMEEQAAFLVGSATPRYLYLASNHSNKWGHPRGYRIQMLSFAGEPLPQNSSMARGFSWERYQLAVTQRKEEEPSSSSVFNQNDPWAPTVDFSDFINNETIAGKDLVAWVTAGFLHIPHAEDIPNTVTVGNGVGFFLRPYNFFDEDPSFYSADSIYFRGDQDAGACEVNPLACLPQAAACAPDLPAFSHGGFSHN
How it was run: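 Hydrogen peroxide from benzylamine (1 mM) oxidation by human recombinant VAP-1 detected via HRP-coupled Amplex Red (200 uM) fluorescence, kinetic over 1–2 h. Enzyme and compound preincubated 30 min at 37 °C, pH 7.4 phosphate; 8-point dose response, signal-rate decrease versus DMSO control fitted to four-parameter logistic for IC50.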

[2] = biological target: T2, recombinant human DAO (diamine oxidase) (Homo sapiens, UniProt P19801); assay: Activity evaluation on recombinant human DAO (Amplex Red/HRP-coupled assay, 1 mM putrescine substrate); settings: read-out: Inhibitory Activity (IC50, nM) DAO
T2 construct: purchased R&D systems
T2 sequence (P19801 20-751): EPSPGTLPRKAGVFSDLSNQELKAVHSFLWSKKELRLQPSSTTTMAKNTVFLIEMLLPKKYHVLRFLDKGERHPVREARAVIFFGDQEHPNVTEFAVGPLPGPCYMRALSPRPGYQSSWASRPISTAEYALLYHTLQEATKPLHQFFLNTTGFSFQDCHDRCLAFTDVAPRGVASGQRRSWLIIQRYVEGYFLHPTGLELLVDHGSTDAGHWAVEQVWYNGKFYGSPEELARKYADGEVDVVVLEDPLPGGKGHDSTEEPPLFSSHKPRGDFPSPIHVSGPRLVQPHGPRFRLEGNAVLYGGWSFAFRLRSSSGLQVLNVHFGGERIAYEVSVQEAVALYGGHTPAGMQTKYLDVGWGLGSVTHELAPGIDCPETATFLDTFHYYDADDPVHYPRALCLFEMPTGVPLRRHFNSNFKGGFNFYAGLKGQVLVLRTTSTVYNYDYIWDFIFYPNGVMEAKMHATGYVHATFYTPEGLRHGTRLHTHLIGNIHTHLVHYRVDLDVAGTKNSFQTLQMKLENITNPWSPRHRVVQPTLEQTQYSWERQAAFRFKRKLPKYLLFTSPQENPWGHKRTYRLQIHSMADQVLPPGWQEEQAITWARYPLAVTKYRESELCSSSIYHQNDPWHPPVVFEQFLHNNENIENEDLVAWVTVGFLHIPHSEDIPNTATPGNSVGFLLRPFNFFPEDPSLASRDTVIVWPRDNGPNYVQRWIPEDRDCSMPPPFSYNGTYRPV
How it was run: (§1)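 8-pt 1:3 dilution series, final DMSO <1%; 30 min 37 °C preincubation w/ enzyme, 50 mM Na phosphate pH 7.4; + 200 uM Amplex Red, 1 U/mL HRP, substrate (MAO-A tyramine 0.5 mM; MAO-B benzylamine 1 mM; DAO putrescine 1 mM); fluor. rate 544/590 nm, 1-2 h; 4-param IC50.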

[3] = biological target: T3, recombinant human MAO-B (monoamine oxidase-B) (Homo sapiens, UniProt P27338); assay: Activity evaluation on recombinant human MAO-B (Amplex Red/HRP-coupled assay, 1 mM benzylamine substrate); settings: read-out: Inhibitory Activity (IC50, nM) MAO-B
T3 construct: purchased Sigma-Aldrich
T3 sequence (P27338 1-520): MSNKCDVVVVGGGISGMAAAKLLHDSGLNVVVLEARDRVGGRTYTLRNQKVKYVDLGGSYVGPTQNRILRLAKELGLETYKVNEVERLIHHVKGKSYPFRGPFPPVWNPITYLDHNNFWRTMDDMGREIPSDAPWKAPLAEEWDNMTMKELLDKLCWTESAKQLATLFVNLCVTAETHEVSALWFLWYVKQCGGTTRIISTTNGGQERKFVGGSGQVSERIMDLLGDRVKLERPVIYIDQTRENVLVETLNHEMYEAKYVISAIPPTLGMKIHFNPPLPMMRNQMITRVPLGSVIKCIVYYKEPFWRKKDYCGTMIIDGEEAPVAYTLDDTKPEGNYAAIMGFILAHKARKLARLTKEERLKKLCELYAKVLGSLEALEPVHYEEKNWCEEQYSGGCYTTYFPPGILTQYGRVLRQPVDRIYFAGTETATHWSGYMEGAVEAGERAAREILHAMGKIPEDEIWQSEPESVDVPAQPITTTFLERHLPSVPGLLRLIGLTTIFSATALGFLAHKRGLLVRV
How it was run: as §1

[4] = biological target: T4, recombinant human MAO-A (monoamine oxidase-A) (Homo sapiens, UniProt P21397); assay: Activity evaluation on recombinant human MAO-A (Amplex Red/HRP-coupled assay, 0.5 mM tyramine substrate); settings: read-out: Inhibitory Activity (IC50, nM) MAO-A
T4 construct: purchased Sigma-Aldrich
T4 sequence (P21397 1-527): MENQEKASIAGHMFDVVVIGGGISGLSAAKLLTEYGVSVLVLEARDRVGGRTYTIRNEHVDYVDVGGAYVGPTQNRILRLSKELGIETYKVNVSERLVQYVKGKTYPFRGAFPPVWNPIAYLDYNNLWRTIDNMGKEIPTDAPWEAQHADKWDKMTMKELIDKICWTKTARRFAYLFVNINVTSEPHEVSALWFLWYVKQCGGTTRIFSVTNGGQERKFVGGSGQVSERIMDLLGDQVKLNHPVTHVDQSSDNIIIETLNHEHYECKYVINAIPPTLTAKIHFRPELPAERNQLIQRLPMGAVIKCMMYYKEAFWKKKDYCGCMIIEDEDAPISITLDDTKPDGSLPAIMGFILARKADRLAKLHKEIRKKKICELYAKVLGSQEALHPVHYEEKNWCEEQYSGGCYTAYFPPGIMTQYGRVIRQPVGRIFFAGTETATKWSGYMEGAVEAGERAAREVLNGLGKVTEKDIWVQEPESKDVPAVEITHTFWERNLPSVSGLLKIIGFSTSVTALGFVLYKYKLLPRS
How it was run: as §1

[5] = recombinant human VAP-1, 30 min preincubation at 37° C., 1 mM benzylamine
[6] = recombinant human VAP-1, benzylamine substrate

Row | Compound | IC50 [1, 5] | IC50 ([2]; 1 mM putrescine) | IC50 ([3]; 1 mM benzylamine) | IC50 ([4]; 0.5 mM tyramine) | IC50 [1, 6] | IC50 ([2]; 1 mM putrescine substrate) | IC50 ([3]; 1 mM benzylamine substrate) | IC50 ([4]; 0.5 mM tyramine substrate)
1 | Cc1cc(-n2cnn(CC(CN)=C(F)F)c2=O)cnc1Br [Example 13, 2-[2-(aminomethyl)-3,3-difluoro-allyl]-4-(6-bromo-5-methyl-3-pyridyl)-1,2,4-triazol-3-one Trifluoroacetate] | 3.6 nM | 910 nM | 3600 nM | > 100000 nM | – | – | – | –
2 | NCC(Cn1ncn(Cc2ccc(-c3cnn(C(F)F)c3)s2)c1=O)=C(F)F [Example 183, 2-[2-(aminomethyl)-3,3-difluoro-allyl]-4-[[5-[1-(difluoromethyl)pyrazol-4-yl]-2-thienyl]methyl]-1,2,4-triazol-3-one Trifluoroacetate] | – | – | – | – | 1.4 nM | > 100000 nM | 2100 nM | > 100000 nM
3 | Cn1cc(-c2ccc(Cn3cnn(CC(CN)=C(F)F)c3=O)s2)ccc1=O [Example 121, 5-[5-[[1-[2-(aminomethyl)-3,3-difluoro-allyl]-5-oxo-1,2,4-triazol-4-yl]methyl]-2-thienyl]-1-methyl-pyridin-2-one Trifluoroacetate] | 0.9 nM | > 10000 nM | 40000 nM | > 100000 nM | – | – | – | –
4 | Cc1cc(-c2ccc(N3CCCC3=O)cc2)cnc1-n1cnn(CC(CN)=C(F)F)c1=O [Example 230, 2-[2-(aminomethyl)-3,3-difluoro-allyl]-4-[3-methyl-5-[4-(2-oxopyrrolidin-1-yl)phenyl]-2-pyridyl]-1,2,4-triazol-3-one Trifluoroacetate] | – | – | – | – | 0.7 nM | 24000 nM | 77000 nM | > 100000 nM
5 | CN1C(=O)CCc2cc(-c3cc(F)c(Cn4cnn(CC(CN)=C(F)F)c4=O)s3)ccc21 [Example 301, 6-[5-[[1-[2-(aminomethyl)-3,3-difluoro-allyl]-5-oxo-1,2,4-triazol-4-yl]methyl]-4-fluoro-2-thienyl]-1-methyl-3,4-dihydroquinolin-2-one trifluoroacetate] | – | – | – | – | 0.5 nM | 2680 nM | > 100000 nM | > 100000 nM
6 | CC(=O)c1ccc(-c2ccc(Cn3cnn(CC(CN)=C(F)F)c3=O)s2)cc1 [Example 100, 4-[[5-(4-acetylphenyl)-2-thienyl]methyl]-2-[2-(aminomethyl)-3,3-difluoro-allyl]-1,2,4-triazol-3-one trifluoroacetate] | 0.5 nM | > 10000 nM | 11000 nM | > 100000 nM | – | – | – | –

Results, then the compound that gave them:

Row | IC50 [1, 5] | IC50 ([2]; 1 mM putrescine) | IC50 ([3]; 1 mM benzylamine) | IC50 ([4]; 0.5 mM tyramine) | IC50 [1, 6] | IC50 ([2]; 1 mM putrescine substrate) | IC50 ([3]; 1 mM benzylamine substrate) | IC50 ([4]; 0.5 mM tyramine substrate) | Compound
7 | 0.4 nM | 24 nM | 450 nM | > 100000 nM | – | – | – | – | CS(=O)(=O)c1ccc(-c2ccc(-n3cnn(CC(CN)=C(F)F)c3=O)cn2)cc1 [Example 38, 2-[2-(aminomethyl)-3,3-difluoro-allyl]-4-[6-(4-methylsulfonylphenyl)-3-pyridyl]-1,2,4-triazol-3-one Trifluoroacetate]
8 | 0.4 nM | 36 nM | 5300 nM | > 100000 nM | – | – | – | – | Cc1cc(-n2cnn(CC(CN)=C(F)F)c2=O)cnc1-c1cc(C)c2c(c1)CCC(=O)N2 [Example 80, 6-[5-[1-[2-(aminomethyl)-3,3-difluoro-allyl]-5-oxo-1,2,4-triazol-4-yl]-3-methyl-2-pyridyl]-8-methyl-3,4-dihydro-1H-quinolin-2-one Trifluoroacetate]
9 | 0.4 nM | 250 nM | > 10000 nM | > 100000 nM | – | – | – | – | NCC(Cn1ncn(-c2ncc(-c3ccc(N4CCNCC4)cc3)cc2F)c1=O)=C(F)F [Example 83, 2-[2-(aminomethyl)-3,3-difluoro-allyl]-4-[3-fluoro-5-(4-piperazin-1-ylphenyl)-2-pyridyl]-1,2,4-triazol-3-one Ditrifluoroacetate]
10 | 0.4 nM | 250 nM | 14000 nM | > 100000 nM | – | – | – | – | NCC(Cn1ncn(CCc2ccc(-c3ccc(C(F)(F)F)nc3)s2)c1=O)=C(F)F [Example 175, 2-[2-(aminomethyl)-3,3-difluoro-allyl]-4-[2-[5-[6-(trifluoromethyl)-3-pyridyl]-2-thienyl]ethyl]-1,2,4-triazol-3-one Trifluoroacetate]
11 | 0.2 nM | 54000 nM | > 100000 nM | > 100000 nM | – | – | – | – | NCC(Cn1ncn(Cc2ccc(/C=C/c3cnc4c(c3)NC(=O)CO4)s2)c1=O)=C(F)F [Example 161, 7-[(E)-2-[5-[[1-[2-(aminomethyl)-3,3-difluoro-allyl]-5-oxo-1,2,4-triazol-4-yl]methyl]-2-thienyl]vinyl]-1H-pyrido[2,3-b][1,4]oxazin-2-one Trifluoroacetate]
12 | 0.4 nM | 54000 nM | 25000 nM | > 100000 nM | – | – | – | – | CCn1cc(-c2ccc(Cn3cnn(CC(CN)=C(F)F)c3=O)s2)ccc1=O [Example 122, 5-[5-[[1-[2-(aminomethyl)-3,3-difluoro-allyl]-5-oxo-1,2,4-triazol-4-yl]methyl]-2-thienyl]-1-ethyl-pyridin-2-one Trifluoroacetate]
